According to patent publication US20260265249A1, “PHARMACEUTICALLY ACCEPTABLE SALT AND CRYSTAL FORM OF 1,4-DIHYDRO-1,6-NAPHTHYRIDINE AMIDE COMPOUND AND PREPARATION METHOD THEREFOR” (JIANGSU HENGRUI PHARMACEUTICALS CO., LTD., priority 2023, published 2026):
One block for each molecule: values may come before it.

Key:
[1] = system: db/db mice (idiopathic type II diabetes model mice); assay: Efficacy test in db/db mouse model with diabetic nephropathy; assay type: in vivo; details: for mALB compared to the model control group / urine albumin-to-creatinine ratio (UACR) compared to the model control group / urine amount compared to the model control group: after 4 weeks of administration, in words; for UACR / Urine creatinine / Urine weight / mALB: db/db mice, 15 mg/kg i.g. once daily, Mean±SEM
Description: Test Example 2: Efficacy Test in db/db Mouse Model with Diabetic Nephropathy
Thirty db/db mice (idiopathic type II diabetes model mice) were selected and divided into a model control group, a positive control group, and a treatment group, and 10 db/m mice were selected as a control group.
The mice were given the compounds by oral gavage (i.g) once daily over 4 consecutive weeks. The administration information is shown in detail in Table 2.
Urine albumin was used as a main measure. The data obtained were analyzed statistically using EXCEL and IBM SPSS Statistics 22.0.
All metrology data are expressed as Mean±SEM s. The parameters before and after administration were plotted for the different groups of animals using the software Graph Pad Prism 8. Data were analyzed using the statistical software SPSS 22.0. A Levene's test of homogeneity of variance was performed on the parameters. When the variance was homogenous (P≥0.05), the Dunnett's & LSD method from the one-way analysis of variance (ANOVA) was used to compare the differences between the groups. When the variance was not homogenous (P<0.05), the Mann-Whitney U test (the M-W method) from the Kruskal-Wallis H test (the K-W method) was used to compare the differences between the groups. For animal survival, the log-rank test from the product-limit method (the K-M method) was used to compare the differences between the groups.

[2] = DVS (dynamic vapor sorption) hygroscopicity test; assay type: physicochemical
Description: According to the description of hygroscopicity characteristics and the definitions of hygroscopic weight gains in “General Rule 9103, Guidelines for Hygroscopicity” in the Chinese Pharmacopoeia, Volume IV, 2015 Edition, • deliquescent: sufficient water is absorbed to form a liquid; • extremely hygroscopic: the hygroscopic weight gain is not less than 15%; • hygroscopic: the hygroscopic weight gain is less than 15% but not less than 2%; • slightly hygroscopic: the hygroscopic weight gain is less than 2% but not less than 0.2%; • nonhygroscopic or practically nonhygroscopic: the hygroscopic weight gain is less than 0.2%.
TGA refers to thermogravimetric analysis: The analysis was performed using a METTLER TOLEDO TGA 2 thermogravimetric analyzer, with a temperature ramp rate of 10° C./min, specific temperature ranges shown in corresponding patterns (mostly 30-350° C.), and a nitrogen purge speed of 50 mL/min. DVS refers to dynamic vapor sorption: The analysis was performed using SMS DVS Advantage; at 25° C., the humidity was changed as follows: 50%-95%-0%-95%-50%, in steps of 10% (5% for the last step) (specific humidity ranges are shown in corresponding patterns, and those listed here were used in most cases); the criterion was dm/dt being not greater than 0.002%.

[3] = Long-term/accelerated stability study (sealed in aluminum foil bags, 25° C./60% RH and 40° C./75% RH); assay type: physicochemical; details: for long-term/accelerated stability (conclusion): storage under long-term accelerated conditions for 6 months
[4] = Influencing factor stability study (open containers; light, high temperature, high humidity; 30 days); assay type: physicochemical
[5] = 4 weeks, ** P<0.01 vs model control group
[6] = accelerated experimental conditions, 70% RH
[7] = normal storage conditions, 25° C. and 60% RH
[8] = 25° C.-60% RH, sealed aluminum foil bag, 1 month
[9] = 25° C.-60% RH, sealed aluminum foil bag, 2 months
[10] = 25° C.-60% RH, sealed aluminum foil bag, 3 months
[11] = 25° C.-60% RH, sealed aluminum foil bag, 6 months
[12] = 40° C.-75% RH, sealed aluminum foil bag, 1 month
[13] = 40° C.-75% RH, sealed aluminum foil bag, 2 months
[14] = 40° C.-75% RH, sealed aluminum foil bag, 3 months
[15] = 40° C.-75% RH, sealed aluminum foil bag, 6 months
[16] = sealed aluminum foil bag, 25° C.-60% RH, 1 month
[17] = sealed aluminum foil bag, 25° C.-60% RH, 2 months
[18] = sealed aluminum foil bag, 25° C.-60% RH, 3 months
[19] = sealed aluminum foil bag, 25° C.-60% RH, 6 months
[20] = sealed aluminum foil bag, 40° C.-75% RH, 1 month
[21] = sealed aluminum foil bag, 40° C.-75% RH, 2 months
[22] = sealed aluminum foil bag, 40° C.-75% RH, 3 months
[23] = sealed aluminum foil bag, 40° C.-75% RH, 6 months
[24] = open container, 40° C., 1 month
[25] = open container, 40° C., 14 days
[26] = open container, 60° C., 1 month
[27] = open container, 60° C., 14 days
[28] = open container, 75% RH, 1 month
[29] = open container, 75% RH, 14 days
[30] = open container, 92.5% RH, 1 month
[31] = open container, 92.5% RH, 7 days
[32] = open container, 92.5% RH, 14 days
[33] = open container, light exposure (4500 Lux), 1 month
[34] = open container, light exposure (4500 Lux), 7 days
[35] = open container, light exposure (4500 Lux), 14 days

Compound: [2H]C([2H])([2H])Oc1cc(C#N)ccc1[C@@H]1C(C(N)=O)=C(C)Nc2c(C)cnc(OCC)c21 [Compound 1]
mALB compared to the model control group [1]: tended to be lower
urine albumin-to-creatinine ratio (UACR) compared to the model control group [1]: statistically significantly smaller
urine amount compared to the model control group [1]: tended to be lower
UACR ([1]; 0 weeks): 5039.91 ± 334.27 µg/mg
Urine creatinine ([1]; 0 weeks): 0.40 ± 0.01 μmol/24 h
Urine weight ([1]; 0 weeks): 2.72 ± 0.14 mL
mALB ([1]; 0 weeks): 224.72 ± 13.19 μg/24 h
Urine creatinine ([1]; 4 weeks): 2.23 ± 0.39 μmol/24 h
Urine weight ([1]; 4 weeks): 10.41 ± 2.29 mL
mALB ([1]; 4 weeks): 870.27 ± 189.40 μg/24 h
UACR [1, 5]: 3301.13 ± 330.31** μg/mg

Compound: [2H]C([2H])([2H])Oc1cc(C#N)ccc1[C@@H]1C(C(N)=O)=C(C)Nc2c(C)cnc(OCC)c21 [crystal form A]
hygroscopic weight gain [2, 6]: about 0.7%
crystal form re-identified after the DVS test [2]: did not change
hygroscopic weight gain ([2]; extreme conditions, 90% RH): about 1.5%
hygroscopic weight gain [2, 7]: about 0.5%
Crystal form ([3]; 0 days): Crystal form A
Purity ([3]; 0 days): 99.7%
Crystal form [3, 16]: No change
Purity [3, 16]: 99.7%
Crystal form [3, 17]: No change
Purity [3, 17]: 99.7%
Crystal form [3, 18]: No change
Purity [3, 18]: 99.7%
Crystal form [3, 19]: No change
Purity [3, 19]: 99.7%
Crystal form [3, 20]: No change
Purity [3, 20]: 99.7%
Crystal form [3, 21]: No change
Purity [3, 21]: 99.6%
Crystal form [3, 22]: No change
Purity [3, 22]: 99.6%
Crystal form [3, 23]: No change
Purity [3, 23]: 99.5%
long-term/accelerated stability (conclusion) [3]: good physical and chemical stability
Crystal form ([4]; 0 days): Crystal form A
Purity ([4]; 0 days): 99.7%
Crystal form [4, 24]: No change
Purity [4, 24]: 99.4%
Crystal form ([4]; open container, 40° C., 7 days): No change
Purity ([4]; open container, 40° C., 7 days): 99.6%
Crystal form [4, 25]: No change
Purity [4, 25]: 99.6%
Crystal form [4, 26]: No change
Purity [4, 26]: 99.4%
Crystal form ([4]; open container, 60° C., 7 days): No change
Purity ([4]; open container, 60° C., 7 days): 99.7%
Crystal form [4, 27]: No change
Purity [4, 27]: 99.6%
Crystal form [4, 28]: No change
Purity [4, 28]: 99.7%
Crystal form ([4]; open container, 75% RH, 7 days): No change
Purity ([4]; open container, 75% RH, 7 days): 99.6%
Crystal form [4, 29]: No change
Purity [4, 29]: 99.7%
Crystal form [4, 30]: No change
Purity [4, 30]: 99.7%
Crystal form [4, 31]: No change
Purity [4, 31]: 99.6%
Crystal form [4, 32]: No change
Purity [4, 32]: 99.7%
Crystal form [4, 33]: No change
Purity [4, 33]: 97.6%
Crystal form [4, 34]: No change
Purity [4, 34]: 99.4%
Crystal form [4, 35]: No change
Purity [4, 35]: 99.1%
stability in the influencing factor experiment (conclusion) ([4]; under other conditions (40° C., 60° C., 75% RH, 92.5% RH)): stable
stability in the influencing factor experiment (conclusion) ([4]; under the light exposure condition): degraded

Compound: CCOc1ncc(C)c2c1[C@H](c1ccc(C#N)cc1OC)C(C(N)=O)=C(C)N2 [Finerenone, reference compound]
mALB compared to the model control group [1]: tended to be lower
urine albumin-to-creatinine ratio (UACR) compared to the model control group [1]: decreased somewhat but is not significantly different
urine amount compared to the model control group [1]: tended to be lower
UACR ([1]; 0 weeks): 5538.19 ± 342.61 µg/mg
Urine creatinine ([1]; 0 weeks): 0.37 ± 0.02 μmol/24 h
Urine weight ([1]; 0 weeks): 2.86 ± 0.17 mL
mALB ([1]; 0 weeks): 226.68 ± 13.90 μg/24 h
Urine creatinine ([1]; 4 weeks): 2.11 ± 0.44 μmol/24 h
Urine weight ([1]; 4 weeks): 11.96 ± 2.89 mL
mALB ([1]; 4 weeks): 1,013.76 ± 245.40 μg/24 h
UACR [1, 5]: 4294.14 ± 464.95 µg/mg

Results, then the molecule that gave them:

hygroscopic weight gain [2, 6]: about 13.7%
crystal form re-identified after the DVS test [2]: did not change
hygroscopic weight gain ([2]; extreme conditions, 90% RH): about 37.5%
hygroscopic weight gain [2, 7]: about 3.6%
Purity (%) ([3]; 0 days (initial)): 99.8%
Crystal form [3, 8]: No change
Purity (%) [3, 8]: 99.3%
Crystal form [3, 9]: No change
Purity (%) [3, 9]: 99.3%
Crystal form [3, 10]: No change
Purity (%) [3, 10]: 99.3%
Crystal form [3, 11]: No change
Purity (%) [3, 11]: 99.3%
Crystal form [3, 12]: No change
Purity (%) [3, 12]: 99.2%
Crystal form [3, 13]: No change
Purity (%) [3, 13]: 98.9%
Crystal form [3, 14]: No change
Purity (%) [3, 14]: 98.8%
Crystal form [3, 15]: No change
Purity (%) [3, 15]: 98.8%
long-term/accelerated stability (conclusion) [3]: good physical and chemical stability
Compound: Cl.[2H]C([2H])([2H])Oc1cc(C#N)ccc1[C@@H]1C(C(N)=O)=C(C)Nc2c(C)cnc(OCC)c21 [crystal form I of hydrochloride]

Purity (%) ([3]; 0 days (initial)): 99.6%
Crystal form [3, 8]: No change
Purity (%) [3, 8]: 99.8%
Crystal form [3, 9]: No change
Purity (%) [3, 9]: 99.8%
Crystal form [3, 10]: No change
Purity (%) [3, 10]: 99.8%
Crystal form [3, 11]: No change
Purity (%) [3, 11]: 99.6%
Crystal form [3, 12]: No change
Purity (%) [3, 12]: 99.6%
Crystal form [3, 13]: No change
Purity (%) [3, 13]: 99.5%
Crystal form [3, 14]: No change
Purity (%) [3, 14]: 99.3%
Crystal form [3, 15]: No change
Purity (%) [3, 15]: 98.8%
long-term/accelerated stability (conclusion) [3]: good physical and chemical stability
Crystal form ([4]; 0 days): Crystal form α of maleate
Purity ([4]; 0 days): 99.6%
stability in the influencing factor experiments (conclusion) ([4]; at a high temperature): slightly degraded
Crystal form [4, 24]: No change
Purity [4, 24]: 97.4%
Crystal form ([4]; open container, 40° C., 7 days): No change
Purity ([4]; open container, 40° C., 7 days): 98.9%
Crystal form [4, 25]: No change
Purity [4, 25]: 98.4%
Crystal form [4, 26]: No change
Purity [4, 26]: 92.2%
Crystal form ([4]; open container, 60° C., 7 days): No change
Purity ([4]; open container, 60° C., 7 days): 98.6%
Crystal form [4, 27]: No change
Purity [4, 27]: 97.0%
Crystal form [4, 28]: No change
Purity [4, 28]: 99.8%
Crystal form ([4]; open container, 75% RH, 7 days): No change
Purity ([4]; open container, 75% RH, 7 days): 99.8%
Crystal form [4, 29]: No change
Purity [4, 29]: 99.8%
Crystal form [4, 30]: No change
Purity [4, 30]: 99.8%
Crystal form [4, 31]: No change
Purity [4, 31]: 99.8%
Crystal form [4, 32]: No change
Purity [4, 32]: 99.8%
Crystal form [4, 33]: No change
Purity [4, 33]: 98.2%
Crystal form [4, 34]: No change
Purity [4, 34]: 99.2%
Crystal form [4, 35]: No change
Purity [4, 35]: 98.7%
Compound: O=C(O)/C=C\C(=O)O.[2H]C([2H])([2H])Oc1cc(C#N)ccc1[C@@H]1C(C(N)=O)=C(C)Nc2c(C)cnc(OCC)c21 [crystal form α of maleate]
